Test results from publication PMC10518255, “A first-in-class pan-lysyl oxidase inhibitor impairs stromal remodeling and enhances gemcitabine response and survival in pancreatic cancer” (Nature Cancer, 2023).

Test system: LOX
Experiment: Time-dependent inhibition with pre-incubation 0-240 min (Fig. 2d)
Assay type: biochemical
Text: Data are presented as mean ± s.d. […] Data presented as mean ± s.d. […] Source data TEXT PRINTED IN THE PICTURE: (b) PXS-5505: Recombinant DAO IC50 (nM): >30,000; Recombinant SSAO/VAP1 IC50 (nM): >30,000; Recombinant MAO-A IC50 (nM): >30,000; Recombinant MAO-B IC50 (nM): >30,000 | (f) PXS-5505: Fibroblast LOX IC50 (nM): 4,930; Recombinant LOXL-1 IC50 (nM): 1,590; Recombinant LOXL-2 IC50 (nM): 570; Recombinant LOXL-3 IC50 (nM): 1,800; Recombinant LOXL-4 IC50 (nM): 190
Similar to other fluoroallylamine-based amine oxidase inhibitors, the mode of inhibition is assumed to be a two-step mechanism (Fig. 2c), with PXS-5505 reacting with the unique LTQ cofactor found within the active site. The fluoroallylamine facilitates the formation of a covalent, irreversible bond. […] Furthermore, in jump dilution experiments, there is no significant recovery of activity following rapid dilution (LOXL1 (5 ± 5% recovery, n = 4), LOXL2 (7 ± 1.2% recovery, n = 3) and LOXL3 (11 ± 2% recovery, n = 3)).

`Cl.Cl.NC/C=C(\F)CS(=O)(=O)c1cccc2cccnc12.O` [PXS-5505, (Z)-3-fluoro-4-(quinolin-8-ylsulfonyl)but-2-en-1-amine dihydrochloride monohydrate] gave an LOX specific activity (pre-incubation 0 min, log conc -4.52288) of 32.1036, an LOX specific activity (pre-incubation 0 min, log conc -5) of 64.3382 and an LOX specific activity (pre-incubation 0 min, log conc -5.47756) of 84.6897. For the same compound, the LOX specific activity (pre-incubation 0 min, log conc -5.95468) was 91.8109, the LOX specific activity (pre-incubation 0 min, log conc -6.4318) was 92.4662 and the LOX specific activity (pre-incubation 0 min, log conc -6.91009) was 98.7719. The LOX specific activity (pre-incubation 0 min, log conc -7.3851) was 96.7913, the LOX specific activity (pre-incubation 0 min, log conc -7.86328) was 102.005 and the LOX specific activity (pre-incubation 0 min, log conc -8.34008) was 102.107. It also gave an LOX specific activity (pre-incubation 0 min, log conc -8.81816) of 98.6554, an LOX specific activity (pre-incubation 0 min, log conc -9.29414) of 106.228 and an LOX specific activity (pre-incubation 0 min, log conc -9.77126) of 108.063. For the same compound, the LOX specific activity (pre-incubation 15 min, log conc -4.52288) was 9.177, the LOX specific activity (pre-incubation 15 min, log conc -5) was 32.3488 and the LOX specific activity (pre-incubation 15 min, log conc -5.47756) was 65.4986. For the same compound, the LOX specific activity (pre-incubation 15 min, log conc -5.95468) was 81.8309, the LOX specific activity (pre-incubation 15 min, log conc -6.4318) was 89.7677 and the LOX specific activity (pre-incubation 15 min, log conc -6.91009) was 93.4569. It also gave an LOX specific activity (pre-incubation 15 min, log conc -7.3851) of 96.3684, an LOX specific activity (pre-incubation 15 min, log conc -7.86328) of 90.7581 and an LOX specific activity (pre-incubation 15 min, log conc -8.34008) of 96.0493. It also gave an LOX specific activity (pre-incubation 15 min, log conc -8.81816) of 95.7037, an LOX specific activity (pre-incubation 15 min, log conc -9.29414) of 99.1403 and an LOX specific activity (pre-incubation 15 min, log conc -9.77126) of 98.9675. It also gave an LOX specific activity (pre-incubation 30 min, log conc -4.52288) of 2.6085, an LOX specific activity (pre-incubation 30 min, log conc -5) of 10.9871 and an LOX specific activity (pre-incubation 30 min, log conc -5.47756) of 44.0429. For the same compound, the LOX specific activity (pre-incubation 30 min, log conc -5.95468) was 69.7571, the LOX specific activity (pre-incubation 30 min, log conc -6.4318) was 82.4602 and the LOX specific activity (pre-incubation 30 min, log conc -6.91009) was 92.2531. The LOX specific activity (pre-incubation 30 min, log conc -7.3851) was 91.8445, the LOX specific activity (pre-incubation 30 min, log conc -7.86328) was 100.827 and the LOX specific activity (pre-incubation 30 min, log conc -8.34008) was 94.7736. For the same compound, the LOX specific activity (pre-incubation 30 min, log conc -8.81816) was 95.6095, the LOX specific activity (pre-incubation 30 min, log conc -9.29414) was 101.078 and the LOX specific activity (pre-incubation 30 min, log conc -9.77126) was 104.925. The LOX specific activity (pre-incubation 60 min, log conc -4.52288) was -1.9, the LOX specific activity (pre-incubation 60 min, log conc -5) was 1.453 and the LOX specific activity (pre-incubation 60 min, log conc -5.47756) was 20.7125. The LOX specific activity (pre-incubation 60 min, log conc -5.95468) was 53.0465, the LOX specific activity (pre-incubation 60 min, log conc -6.4318) was 78.5482 and the LOX specific activity (pre-incubation 60 min, log conc -6.91009) was 90.7227. For the same compound, the LOX specific activity (pre-incubation 60 min, log conc -7.3851) was 95.8188, the LOX specific activity (pre-incubation 60 min, log conc -7.86328) was 101.294 and the LOX specific activity (pre-incubation 60 min, log conc -8.34008) was 102.525. For the same compound, the LOX specific activity (pre-incubation 60 min, log conc -8.81816) was 100.564, the LOX specific activity (pre-incubation 60 min, log conc -9.29414) was 101.737 and the LOX specific activity (pre-incubation 60 min, log conc -9.77126) was 102.743. The LOX specific activity (pre-incubation 120 min, log conc -4.52288) was 2.378, the LOX specific activity (pre-incubation 120 min, log conc -5) was 0.7896 and the LOX specific activity (pre-incubation 120 min, log conc -5.47756) was 6.366. It also gave an LOX specific activity (pre-incubation 120 min, log conc -5.95468) of 21.6941, an LOX specific activity (pre-incubation 120 min, log conc -6.4318) of 62.059 and an LOX specific activity (pre-incubation 120 min, log conc -6.91009) of 92.1986. The LOX specific activity (pre-incubation 120 min, log conc -7.3851) was 91.1259, the LOX specific activity (pre-incubation 120 min, log conc -7.86328) was 98.8619 and the LOX specific activity (pre-incubation 120 min, log conc -8.34008) was 100.244. It also gave an LOX specific activity (pre-incubation 120 min, log conc -8.81816) of 100.045, an LOX specific activity (pre-incubation 120 min, log conc -9.29414) of 96.9572 and an LOX specific activity (pre-incubation 120 min, log conc -9.77126) of 100.753. For the same compound, the LOX specific activity (pre-incubation 240 min, log conc -4.52288) was -3.18, the LOX specific activity (pre-incubation 240 min, log conc -5) was 0.3645 and the LOX specific activity (pre-incubation 240 min, log conc -5.47756) was 8.283. It also gave an LOX specific activity (pre-incubation 240 min, log conc -5.95468) of 6.894, an LOX specific activity (pre-incubation 240 min, log conc -6.4318) of 35.306 and an LOX specific activity (pre-incubation 240 min, log conc -6.91009) of 69.9646. It also gave an LOX specific activity (pre-incubation 240 min, log conc -7.3851) of 87.2279, an LOX specific activity (pre-incubation 240 min, log conc -7.86328) of 94.5493 and an LOX specific activity (pre-incubation 240 min, log conc -8.34008) of 99.3255. The LOX specific activity (pre-incubation 240 min, log conc -8.81816) was 102.317, the LOX specific activity (pre-incubation 240 min, log conc -9.29414) was 102.769 and the LOX specific activity (pre-incubation 240 min, log conc -9.77126) was 103.159. For the same compound, the “time-dependent inhibition of LOX specific activity” value (pre-incubation time 0–240 min) was “increased potency with increased pre-incubation time”.
